From patent publication US20130136740A1, “METHODS OF TREATING CANCER” (priority 2011, published 2013) come the findings set out here.

The data set is described as follows: Serum phosphate in rats. The settings on record: daily dosing 50 mg/kg/day oral gavage, at 24 hour or 1 week. The format is in vivo, Sprague Dawley rats. As to the method:
FGFR1-ECD.339-Fc binds to the mitogenic FGFs with 10 to 100-fold higher affinity than to FGF-23. […] The potential biological impact of this relatively weak FGFR1-ECD.339-Fc/FGF-23 binding was investigated in rats following four weekly doses of FGFR1-ECD.339-Fc at a dose range of 10-200 mg/kg/qwk.
In the first experiment, Sprague Dawley rats (Charles River Labs; N=5/group) were dosed with vehicle, 10, 50 or 200 mg/kg/qwk of FGFR1-ECD.339-Fc for four weekly doses and plasma concentrations of FGFR1-ECD.339-Fc were determined throughout the study by an ELISA based detection method.
In the second experiment, Sprague Dawley rats (Charles River Labs; N=5/group) were administered the FGFR kinase inhibitor PD173074 (Chemdea, Ridgewood, N.J.; 50 mg/kg/day) or vehicle control by oral gavage for 7 days; or were administered FGFR1-ECD.339-Fc (200 mg/kg) or appropriate vehicle weekly by intravenous administration. Blood samples were collected at the time points indicated and serum phosphate was determined at 24 and 168 hours post-initiation of dosing (Idexx laboratories, Westbrook, Mass.).

With `CCN(CC)CCCCNc1ncc2cc(-c3cc(OC)cc(OC)c3)c(NC(=O)NC(C)(C)C)nc2n1` [PD173043, reference compound], the plasma phosphate levels entry is recorded as “significantly elevated”.
